{"source": "patent US12202832B2", "about": "“Heterocyclic compounds having a calcium-sensing receptor antagonistic activity” (TAKEDA PHARMACEUTICAL COMPANY LIMITED, priority 2017, dated 2025)", "key": {"CSQ-Tg mice [1]": {"tested_on": "CSQ-Tg mice", "experiment": "Heart weight lowering effect in heart failure animal model", "type": "in vivo", "settings": "mean ± standard deviation; for Heart weight / Right ventricle weight: ** p < 0.025 Williams' test", "protocol": "In this Test Example, the heart weight lowering effect of the compound of Example 1 (referred to herein as “Example 1”) was evaluated using CSQ-Tg mice as animal model for heart failure.\nThe Example 1 was suspended in 0.5% methylcellulose aqueous solution (hereinafter, in Test Examples, sometimes referred to as “vehicle”) (10 mL/kg). The obtained suspension was orally administered to 5-week old female CSQ-Tg mice developing heart failure at a dose of 30 mg/kg bodyweight/day (n=7) or 90 mg/kg bodyweight/day (n=9) once daily (QD) for 21 days. For a negative control (vehicle administration group), 0.5% methylcellulose aqueous solution (n=7) was administered. Then, weights of the hearts were measured. The measurement of the weights was carried out by fractionating each of the hearts into four: left ventricle, right ventricle, left atrium, and right atrium. The sum of the weights of the four fractions was defined as the heart weight."}, "CSQ-Tg mice [2]": {"tested_on": "CSQ-Tg mice", "experiment": "Effect on survival rate of heart failure animal model", "type": "in vivo", "settings": "oral QD 68 days, control: candesartan cilexetil mono-administration", "protocol": "FIG. 1 is a graph showing a result of Test Example 5 “Effect of Compound of Example 1 on Survival Rate of Heart Failure Animal Model”, that is, survival rates of each of the mono-administration group of candesartan cilexetil, the co-administration group of candesartan cilexetil and the compound of Example 1 at 10 mg/kg bodyweight/day, and the co-administration group of candesartan cilexetil and the compound of Example 1 at 30 mg/kg bodyweight/day (log-rank test, the co-administration group of candesartan cilexetil and the compound of Example 1 at 10 mg/kg bodyweight/day (p<0.05), the co-administration group of candesartan cilexetil and the compound of Example 1 at 30 mg/kg bodyweight/day (p<0.01)).\nIn this Test Example, effect of Example 1 on survival rate was examined using heart failure animal models. The mice reported in Larry R. Jones et al., J. Clin. Invest. 101: 1385-1393, 1998 were obtained from the University of Pennsylvania and bred in-house, which were cardiac-specific transgenic mice of Calsequestrin (CSQ) (CSQ-Tg mice) as the heart failure animal models. In the study, female mice were used, and dosing was started from the age of 5 weeks. The animals were fed with chow (CE-2, CLEA Japan, Inc.) and tap water under the condition of room temperature of 20 to 26° C., humidity of 40 to 70%, and lighting time of 12 hours/day (7:00 to 19:00). […]"}, "[3]": {"settings": "30 mg/kg bodyweight/day oral QD 21 days"}, "[4]": {"settings": "90 mg/kg bodyweight/day oral QD 21 days"}}}
{"smiles": "CCc1ccc([C@@](CC)(NC(=O)c2c(C)nn3c2N[C@@H](c2ccccc2)CC3(C)C)C(=O)N[C@@H](C)C(N)=O)cc1", "note": "[Example 1, (5R)-N-((2R)-1-(((2S)-1-Amino-1-oxopropan-2-yl)amino)-2-(4-ethylphenyl)-1-oxobutan-2-yl)-2,7,7-trimethyl-5-phenyl-4,5,6,7-tetrahydropyrazolo[1,5-a]pyrimidine-3-carboxamide]", "values": [{"measurement": "Left atrium weight", "setting": "CSQ-Tg mice [1]; [3]", "result": "8.1 ± 3.8", "unit": "mg"}, {"measurement": "Left ventricle weight", "setting": "CSQ-Tg mice [1]; [3]", "result": "147.4 ± 12.0", "unit": "mg"}, {"measurement": "Right atrium weight", "setting": "CSQ-Tg mice [1]; [3]", "result": "5.5 ± 2.6", "unit": "mg"}, {"measurement": "Heart weight", "setting": "CSQ-Tg mice [1]; [3]", "result": "202.8 ± 14.1** mg"}, {"measurement": "Right ventricle weight", "setting": "CSQ-Tg mice [1]; [3]", "result": "41.8 ± 6.0** mg"}, {"measurement": "Left atrium weight", "setting": "CSQ-Tg mice [1]; [4]", "result": "9.1 ± 5.1", "unit": "mg"}, {"measurement": "Left ventricle weight", "setting": "CSQ-Tg mice [1]; [4]", "result": "147.0 ± 8.6", "unit": "mg"}, {"measurement": "Right atrium weight", "setting": "CSQ-Tg mice [1]; [4]", "result": "5.1 ± 2.2", "unit": "mg"}, {"measurement": "Heart weight", "setting": "CSQ-Tg mice [1]; [4]", "result": "202.5 ± 19.1** mg"}, {"measurement": "Right ventricle weight", "setting": "CSQ-Tg mice [1]; [4]", "result": "41.3 ± 7.6** mg"}, {"measurement": "Survival rate, log-rank test p", "setting": "CSQ-Tg mice [2]; 10 mg/kg bodyweight/day co-administered with candesartan cilexetil (1 mg/kg bodyweight/day)", "result": "< 0.05"}, {"measurement": "Survival rate, log-rank test p", "setting": "CSQ-Tg mice [2]; 30 mg/kg bodyweight/day co-administered with candesartan cilexetil (1 mg/kg bodyweight/day)", "result": "< 0.01"}]}
